Experimental data: patent publication EP4729615A1, “SIRNA TARGETING MMP7, SIRNA CONJUGATE AND MEDICAL USE THEREOF” (Tuojie Biotech (Shanghai) Co., Ltd., priority 2023, dated 2024)
Strand notation (5' to 3'): a small letter for the sugar, then the base; units joined by * are phosphorothioate-linked, units joined directly phosphodiester-linked; [ ] holds rarer units or linkages, { } end groups; capitals alone tell only the bases. {I-14} = ligand I-14 conjugated at sense 5' end; m = 2'-O-methyl; f = 2'-fluoro

Key:
[1] = target: human recombinant αvβ6 protein (Homo sapiens, UniProt P06756+P18564); test: fluorescence polarization (FP) binding assay with fluorescent RGD peptide; details: 12 concentration points, highest 10 µM, 3-fold serial dilution
Sequence of human recombinant αvβ6 protein (P06756 31-992 limits assumed): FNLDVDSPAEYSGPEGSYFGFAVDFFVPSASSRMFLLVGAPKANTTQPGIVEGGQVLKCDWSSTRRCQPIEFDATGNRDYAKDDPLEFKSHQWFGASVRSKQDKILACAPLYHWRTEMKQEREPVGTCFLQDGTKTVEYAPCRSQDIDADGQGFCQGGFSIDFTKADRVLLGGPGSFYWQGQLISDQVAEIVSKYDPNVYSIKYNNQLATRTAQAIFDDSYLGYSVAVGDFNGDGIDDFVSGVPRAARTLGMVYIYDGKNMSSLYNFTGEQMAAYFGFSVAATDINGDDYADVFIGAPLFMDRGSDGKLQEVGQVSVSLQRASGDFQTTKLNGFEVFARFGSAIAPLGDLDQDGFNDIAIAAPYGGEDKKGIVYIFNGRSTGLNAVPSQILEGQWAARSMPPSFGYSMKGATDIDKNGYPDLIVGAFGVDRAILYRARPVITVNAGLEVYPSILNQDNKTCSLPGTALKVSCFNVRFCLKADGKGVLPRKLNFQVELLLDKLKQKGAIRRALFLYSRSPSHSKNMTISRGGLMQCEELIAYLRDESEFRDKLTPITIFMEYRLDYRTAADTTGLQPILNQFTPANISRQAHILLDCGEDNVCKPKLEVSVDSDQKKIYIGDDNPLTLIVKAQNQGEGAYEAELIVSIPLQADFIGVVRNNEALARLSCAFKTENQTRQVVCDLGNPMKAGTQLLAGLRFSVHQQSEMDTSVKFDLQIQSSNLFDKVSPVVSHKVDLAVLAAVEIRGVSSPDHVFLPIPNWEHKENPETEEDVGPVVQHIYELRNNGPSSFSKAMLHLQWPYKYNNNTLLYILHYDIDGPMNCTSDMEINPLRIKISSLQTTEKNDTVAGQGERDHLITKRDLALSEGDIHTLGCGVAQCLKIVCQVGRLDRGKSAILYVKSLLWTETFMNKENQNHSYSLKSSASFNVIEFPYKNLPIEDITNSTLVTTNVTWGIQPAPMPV
Sequence of human recombinant αvβ6 protein (P18564 22-707 limits assumed): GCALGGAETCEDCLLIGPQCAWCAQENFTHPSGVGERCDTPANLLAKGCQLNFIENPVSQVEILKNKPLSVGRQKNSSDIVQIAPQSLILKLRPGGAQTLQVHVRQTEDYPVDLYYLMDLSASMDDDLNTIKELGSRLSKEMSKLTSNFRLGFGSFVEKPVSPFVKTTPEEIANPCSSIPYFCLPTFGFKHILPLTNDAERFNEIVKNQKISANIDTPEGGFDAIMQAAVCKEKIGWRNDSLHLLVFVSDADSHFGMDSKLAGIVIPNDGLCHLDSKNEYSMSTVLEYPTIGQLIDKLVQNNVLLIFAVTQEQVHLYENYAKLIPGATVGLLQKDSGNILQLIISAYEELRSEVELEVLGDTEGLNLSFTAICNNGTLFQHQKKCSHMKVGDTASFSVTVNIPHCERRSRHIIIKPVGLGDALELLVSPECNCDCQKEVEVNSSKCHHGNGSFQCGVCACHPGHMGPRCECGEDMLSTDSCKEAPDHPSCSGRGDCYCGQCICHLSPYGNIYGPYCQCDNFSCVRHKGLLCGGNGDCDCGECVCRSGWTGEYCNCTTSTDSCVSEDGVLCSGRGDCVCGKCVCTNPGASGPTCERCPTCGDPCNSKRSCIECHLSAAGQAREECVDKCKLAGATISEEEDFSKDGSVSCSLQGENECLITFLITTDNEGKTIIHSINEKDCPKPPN
Protocol: The specific assay method is as follows: • 3.5 µL of test compound I-12 was added to a 384-well black plate. For the test compound, 12 concentration points were set up. The highest concentration was 10 µM, and 3-fold serial dilution was performed. DMSO control wells were used to determine the maximum signal, and 500 nM compound CWHM-12 (MCE, HY-18644) control wells were used as the minimum signal. Then, 3.5 µL of 4× human recombinant αvβ6 protein working solution was added. After incubation at room temperature for 15 min, 7 µL of 2× fluorescent RGD peptide solution was added to each well. The plate was incubated at room temperature for 1 h, and then FP signals were read using Envision. Using GraphPad Prism, the inhibition curve fitting was performed, and the IC50 value was calculated. The IC50 value (Z prime > 0.5) was calculated using the following formula: Y = Bottom + (Top−Bottom)/(1+10^(∧)((LogIC50−X)×HillSlope)) [formula] • X: Log inhibitor concentration; Y: inhibition rate %.

MMP7 mRNA = test: on-target activity of siRNA conjugates at 2 endogenous concentration points in HCC38 cells, Q-PCR (Example 10); format: cell-based, human; details: 24 h after transfection; for 2 nM remaining expression (%): siRNA conjugate 2 nM; for 10 nM remaining expression (%): siRNA conjugate 10 nM
Protocol: The siRNA conjugates were subjected to an in vitro molecular-level activity screening in HCC38 cells using 2 concentration gradients.
HCC38 cells were cultured at 37 °C with 5% CO2 in a 1640 culture medium containing 10% fetal bovine serum. 24 h prior to transfection, the HCC38 cells were seeded into a 96-well plate at a density of 1.5 × 10^4 cells per well, with each well containing 100 µL of the culture medium.
The cells were transfected with the siRNA conjugates using Lipofectamine RNAi Max (Invitrogen, 13778-150) according to the instructions. 0.3 µL of Lipofectamine RNAi Max was used for each well. A total of 2 concentration points were set for the siRNA conjugates, i.e., 10 nM and 2 nM, respectively. 24 h after transfection, RNA was extracted for Q-PCR to detect the activity of the siRNA conjugates. […] Table 9. Activity results of siRNA conjugates at 2 concentration points at the HCC38 cellular level

[N-]=[N+]=NCCOCCOCCOCCOCCOc1ccc(-c2ccc([C@H](CC(=O)O)NC(=O)CNC(=O)CCCNc3cc4ccccc4cn3)cc2)c2ccccc12 [I-12]
IC50 [1]: 79.9 nM

TJR103312: siRNA conjugate containing I-14; SS SEQ ID NO 28 (I-14UmsGmsGmGmUmAmGfAfUfGmUmCmAmAmUmAmAmAmUm), AS SEQ ID NO 58 (sense {I-14}-mU*mG*mGmGmUmAfGfAfUmGmUmCmAmAmUmAmAmAmU; antisense AUUUAUUGACAUCUACCCACU; antisense: chemistry not given here)
2 nM remaining expression (%) (MMP7 mRNA): 11.35% | 10 nM remaining expression (%) (MMP7 mRNA): 8.20%

TJR103313: siRNA conjugate containing I-14; SS SEQ ID NO 29 (I-14UmsGmsAmCmUmCmAfGfAfAmAmCmAmAmAmAmAmAmUm), AS SEQ ID NO 59 (sense {I-14}-mU*mG*mAmCmUmCfAfGfAmAmAmCmAmAmAmAmAmAmU; antisense AUUUUUUGUUUCUGAGUCAUA; antisense: chemistry not given here)
2 nM remaining expression (%) (MMP7 mRNA): 8.05% | 10 nM remaining expression (%) (MMP7 mRNA): 4.23%

TJR103314: siRNA conjugate containing I-14; SS SEQ ID NO 30 (I-14AmsUmsUmCmAmAmGfAfAfAmGmAmAmAmUmAmGmAmAm), AS SEQ ID NO 60 (sense {I-14}-mA*mU*mUmCmAmAfGfAfAmAmGmAmAmAmUmAmGmAmA; antisense UUCUAUUUCUUUCUUGAAUUA; antisense: chemistry not given here)
2 nM remaining expression (%) (MMP7 mRNA): 14.73% | 10 nM remaining expression (%) (MMP7 mRNA): 8.03%
